In ChEMBL document CHEMBL1124487, “Acid-sensitive latent inhibitors for proteolytic enzymes: synthesis and characterization” (J Med Chem, 1989):

Key:
Papain [1] = target: T1, Papain (Carica papaya, UniProt P00784); assay: Inhibition of papain-catalyzed hydrolysis of BzArg p-nitroanilide by compound at pH 5
T1 sequence (P00784 whole entry): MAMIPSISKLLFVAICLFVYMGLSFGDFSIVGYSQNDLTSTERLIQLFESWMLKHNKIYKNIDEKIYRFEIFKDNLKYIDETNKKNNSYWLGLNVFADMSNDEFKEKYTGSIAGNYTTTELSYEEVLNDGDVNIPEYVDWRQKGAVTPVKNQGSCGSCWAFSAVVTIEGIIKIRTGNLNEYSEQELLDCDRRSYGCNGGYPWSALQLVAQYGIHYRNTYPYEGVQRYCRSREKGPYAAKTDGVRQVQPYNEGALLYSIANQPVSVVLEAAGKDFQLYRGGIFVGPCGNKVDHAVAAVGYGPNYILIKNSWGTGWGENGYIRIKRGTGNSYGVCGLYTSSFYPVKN

Papain (Carica papaya) = target: T2, Papain (Carica papaya) (UniProt P00784)
T2 sequence (whole entry): T1 sequence (P00784 whole entry)
Description: Initial rate of reaction between papain and BzArg p-nitro-anilide in the presence of 400 uM at pH 7

Papain [2] = target: T1, Papain; assay: Inhibition of papain-catalyzed hydrolysis of BzArg p-nitroanilide by compound at pH 5.5
Papain [3] = target: T1, Papain; assay: Inhibition of papain-catalyzed hydrolysis of BzArg p-nitroanilide by compound at pH 7

Ki (Papain [1]): 38 µM
Kix (Papain (Carica papaya)): 1 mM
Ki (Papain [2]): 25 µM
Ki (Papain [3]): 30 µM
SMILES: CC(=O)N[C@@H](C)C(=O)N/N=C/CNC(=O)c1ccccc1
